Test results published in US20210308166A1, “ANTIOXIDANT COMPOSITION COMPRISING NOVEL GINSENOSIDE” (AMOREPACIFIC CORPORATION, priority 2018, published 2021).

Legend:
RAW 264.7 macrophages = assay: Scavenging of LPS-induced reactive oxygen species, H2DCFDA fluorescence; format: cell-based
Procedure: RAW 264.7 macrophages purchased from ATCC were cultured in Dulbecco's modified Eagle's medium (Sigma) supplemented with 10% fetal bovine serum (FBS; HyClone) and 1% penicillin/streptomycin (Sigma) in a 5% CO2 incubator. After treating the RAW 264.7 cells with NAC (N-acetylcysteine; positive control group; Sigma) or each of the 7 ginsenosides extracted from the ginseng seed (GS #01 to GS #06 and GS #10; 10 μM each) for 1 hour, lipidpolysaccharides (LPS; inflammation/oxidative stress-induced group, Sigma) ware administered at a concentration of 10 ng/mL concentration for 30 minutes. Then, the cells were treated with 10 μM H2DCFDA (2′,7′-dichlorodihydrofluorescein diacetate; Invitrogen) for 30 minutes for measurement of reactive oxygen species. The amount of accumulated reactive oxygen species was measured using a TECAN multiplate reader (Tecan AG, excitation 485 nm, emission 530 nm).
The reactive oxygen species-scavenging ability of the novel ginsenoside GS #10 (isolated from the ginseng seed extract) according to an exemplary embodiment of the present disclosure was compared with that of three ginsenosides (Rg1, Rg3 and Rb1; Sigma), which are marker compounds of red ginseng as comparative examples of the present disclosure, in the same manner as in Test Example 2. The concentrations of the ginsenosides were 1 and 10 μM.

[1] = DPPH radical-scavenging (DPPH inhibition) assay; format: biochemical
Procedure: The DPPH (2,2-diphenyl-1-picrylhydrazyl) radical dissolved in an organic solvent has maximum absorbance at 515 nm. An antioxidant substance scavenges the DPPH radical, thereby turning the solution colorless and transparent. Accordingly, antioxidant effect can be compared by measuring the DPPH radical-scavenging activity of the ginsenosides through DPPH assay.
First, a DPPH solution was prepared by dissolving 4 mg of DPPH (Sigma) in 100 mL of ethanol (Sigma). Then, 10 μM of the novel ginsenoside GS #10 of an exemplary embodiment of the present disclosure or each of the ginsenosides GS #01 to GS #06 as comparative examples of the present disclosure, isolated from the ginseng seed extract, were dissolved in 200 μL of the DPPH solution. Trolox (Sigma; 10 μM) was used as a positive control group. After keeping the reaction solution at room temperature for 30 minutes, absorbance was measured at a wavelength of 515 nm.
DPPH-inhibiting effect was compared in the same manner as in Test Example 1. The novel ginsenoside GS #10 (isolated form the ginseng seed extract) according to an exemplary embodiment of the present disclosure was compared with three marker compounds of red ginseng (Rg1, Rg3 and Rb1; Sigma) as comparative examples of the present disclosure. The concentrations of the ginsenosides were 1 and 10 μM. […]

SH-SY5Y cells = assay: Cytotoxicity / cell viability, CCK-8; format: cell-based; settings: SH-SY5Y cells, 0.1, 1, 5, 10, 20 and 50 μM, CCK-8 (FIG. 15)
Procedure: In order to exclude the possibility that the ginsenoside might affect antioxidant effect through cytotoxic activity, cell growth in the presence of the novel ginsenoside GS #10 according to an exemplary embodiment of the present disclosure was evaluated as follows using CCK (Cell Counting Kit)-8.
After adding 10 μL of CCK-8 reagent to SH-SY5Y cells (Dojindo, Md., USA) on a 96-well plate and maintaining at 37° C. for 2 hours, absorbance was measured at 450 nm. Cell viability was represented as the percentage (%) of the absolute optical density of each sample with respect to an untreated sample. The concentrations of the novel ginsenoside GS #10 according to an exemplary embodiment of the present disclosure in the medium for culturing the cells were 0.1, 1, 5, 10, 20 and 50 μM.

Structure (SMILES): CC1(C)C(=O)CC[C@@]2(C)C1[C@@H](O[C@H]1OC(CO)[C@H](O)C(O)C1O[C@H]1OC(CO)[C@H](O)C(O)C1O)C[C@]1(C)C2C[C@@H](O)C2C([C@]3(C)CC[C@H](C(C)(C)O)O3)CC[C@]21C (stereo partly drawn) [Compound 10, (20S,24R)-6-O-β-D-glucopyranosyl(1->2)-β-D-glucopyranoside-dammar-3-one-20,24-epoxy-6a,12b,25-triol]
- removal of reactive oxygen species induced by LPS (RAW 264.7 macrophages; 10 μM for 1 hour, then LPS 10 ng/mL 30 minutes, compared to Compounds 1-6 at the same concentration (FIG. 12)): can effectively remove the reactive oxygen species induced by LPS
- production of reactive oxygen species (RAW 264.7 macrophages; 1 and 10 μM, LPS-treated RAW 264.7 cells (FIG. 14)): decreased as the concentration of the novel ginsenoside GS #10 according to the present disclosure was increased
- reactive oxygen species-scavenging ability (RAW 264.7 macrophages; 1 and 10 μM, compared to ginsenosides Rg1, Rg3 and Rb1 (FIG. 14)): remarkably superior
- DPPH (reactive oxygen species)-scavenging ability, i.e., DPPH-inhibiting ability ([1]; 10 μM, room temperature 30 minutes, absorbance 515 nm, compared to Compounds 1-6 at the same concentration (FIG. 11)): remarkably higher DPPH (reactive oxygen species)-scavenging ability
- DPPH-inhibiting effect ([1]; 1 and 10 μM, compared to ginsenosides Rg1, Rg3 and Rb1, marker compounds of red ginseng (FIG. 13)): remarkably excellent DPPH-inhibiting effect
- cytotoxicity (cell viability, % of untreated sample) (SH-SY5Y cells): no cytotoxicity up to 50 μM
